Laboratory results from ChEMBL document CHEMBL1201862, “PubChem BioAssay data set” (2004).
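Results reflect a 48-hour exposure of cells in 96-well plates to compound at five concentrations. The concentration for 50% growth inhibition is given as GI50.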 Calls of active or inactive are those of the source. Cut-off read from the data, not from the text of the source: active = GI50 up to about 1.1 µM and inactive = higher.

Experiments:
Experiment in all cases: NCI anticancer screen, dose series, 48 h
[1] = tested on: A498
[2] = tested on: BT-549
[3] = tested on: CAKI-1
[4] = tested on: HCC 2998
[5] = tested on: HCT-116
[6] = tested on: HOP-92
[7] = tested on: HT-29
[8] = tested on: MDA-MB-231
[9] = tested on: MOLT-4
[10] = tested on: Malme-3M
[11] = tested on: NCI-H23
[12] = tested on: OVCAR-5
[13] = tested on: OVCAR-8
[14] = tested on: RPMI-8226
[15] = tested on: RXF 393
[16] = tested on: SF-295
[17] = tested on: SK-MEL-5
[18] = tested on: SNB-75
[19] = tested on: SR
[20] = tested on: SW-620

SMILES | GI50 [1] | GI50 [2] | GI50 [3] | GI50 [4] | GI50 [5] | GI50 [6] | GI50 [7] | GI50 [8] | GI50 [9] | GI50 [10] | GI50 [11] | GI50 [12] | GI50 [13] | GI50 [14] | GI50 [15] | GI50 [16] | GI50 [17] | GI50 [18] | GI50 [19] | GI50 [20]
O=c1[nH]c2c(Nc3c4ccccc4nc4ccccc34)c([N+](=O)[O-])c(Nc3c4ccccc4nc4ccccc34)c([N+](=O)[O-])c2[nH]1 | 1.32 µM (inactive) | 3.51 µM (inactive) | 2.15 µM (inactive) | 1.73 µM (inactive) | 0.687 µM (active) | 1.67 µM (inactive) | 0.618 µM (active) | 2.06 µM (inactive) | 0.38 µM (active) | 1.57 µM (inactive) | 1.26 µM (inactive) | 1.8 µM (inactive) | 1.21 µM (inactive) | 0.514 µM (active) | 2.42 µM (inactive) | 2.41 µM (inactive) | 2.11 µM (inactive) | 2.48 µM (inactive) | 0.741 µM (active) | 1.17 µM (inactive)
O=C(/C=C/c1ccc(Cl)cc1)c1ccccc(=O)c1O | 2.84 µM (inactive) | 2.3 µM (inactive) | 0.614 µM (active) | 0.579 µM (active) | 0.957 µM (active) | 3.54 µM (inactive) | 2.58 µM (inactive) | 1.44 µM (inactive) | 0.798 µM (active) | 1.33 µM (inactive) | 2.71 µM (inactive) | 6.34 µM (inactive) | 0.698 µM (active) | 1.07 µM (active) | 2.81 µM (inactive) | 1.22 µM (inactive) | 0.621 µM (active) | 2.86 µM (inactive) | 0.238 µM (active) | 4.38 µM (inactive)
Cc1cc(S(=O)(=O)Nc2nc(Nc3ccccc3)n[nH]2)c(SCC(=O)O)cc1Cl | > 100 µM (inactive) | > 100 µM (inactive) | > 100 µM (inactive) | > 100 µM (inactive) | > 100 µM (inactive) | > 100 µM (inactive) | > 100 µM (inactive) | > 100 µM (inactive) | > 100 µM (inactive) | > 100 µM (inactive) | > 100 µM (inactive) | > 100 µM (inactive) | > 100 µM (inactive) | > 100 µM (inactive) | > 100 µM (inactive) | > 100 µM (inactive) | > 100 µM (inactive) | > 100 µM (inactive) | > 100 µM (inactive) | > 100 µM (inactive)
O=C(CC(O)(C(F)(F)F)C(F)(F)F)c1cc(CC(=O)C(O)(C(F)(F)F)C(F)(F)F)cc(CC(=O)C(O)(C(F)(F)F)C(F)(F)F)c1 | 1.88 µM (inactive) | 1.71 µM (inactive) | 1.75 µM (inactive) | 1.54 µM (inactive) | 0.76 µM (active) | 0.984 µM (active) | 1.4 µM (inactive) | 1.64 µM (inactive) | 4.47 µM (inactive) | 2.01 µM (inactive) | 0.867 µM (active) | 3.01 µM (inactive) | 1.95 µM (inactive) | > 10 µM (inactive) | 1.47 µM (inactive) | 1.05 µM (active) | 1.57 µM (inactive) | 1.91 µM (inactive) | 6.78 µM (inactive) | 2.06 µM (inactive)
COC(=O)C1=C(C=O)C2C=CC1C2 (stereo not given) | > 100 µM (inactive) | > 100 µM (inactive) | 44.2 µM (inactive) | > 89.1 µM (inactive) | 58.9 µM (inactive) | > 100 µM (inactive) | > 66.2 µM (inactive) | > 100 µM (inactive) | 35.6 µM (inactive) | 56.9 µM (inactive) | > 97.5 µM (inactive) | > 100 µM (inactive) | 55 µM (inactive) | 51.1 µM (inactive) | 81.5 µM (inactive) | > 100 µM (inactive) | > 100 µM (inactive) | 28.6 µM (inactive) | > 56.6 µM (inactive) | 43.6 µM (inactive)
Cc1nc2c(=O)n(C)c(=O)n(C)c2o1 | > 100 µM (inactive) | > 100 µM (inactive) | > 100 µM (inactive) | > 100 µM (inactive) | > 100 µM (inactive) | > 100 µM (inactive) | > 100 µM (inactive) | > 100 µM (inactive) | > 100 µM (inactive) | > 100 µM (inactive) | > 100 µM (inactive) | > 100 µM (inactive) | > 100 µM (inactive) | > 100 µM (inactive) | > 100 µM (inactive) | > 100 µM (inactive) | > 100 µM (inactive) | > 100 µM (inactive) | > 100 µM (inactive) | > 100 µM (inactive)
CC1=CC(=O)[C@@H](O)[C@]2(C)[C@H]3[C@@]4(O)OC[C@]35[C@H]([C@@H](C)[C@H]4O)[C@@H](OC(=O)C(C)(C)CO)C(=O)O[C@@H]5C[C@@H]12 | 1.42 µM (inactive) | 0.0428 µM (active) | 1.08 µM (active) | 0.0476 µM (active) | < 0.0199 µM (active) | 0.0887 µM (active) | 0.207 µM (active) | 0.363 µM (active) | 0.0178 µM (active) | < 0.01 µM (active) | < 0.0179 µM (active) | 0.701 µM (active) | 0.19 µM (active) | 0.0158 µM (active) | 0.237 µM (active) | 0.229 µM (active) | < 0.0204 µM (active) | 0.045 µM (active) | 0.0155 µM (active) | 0.229 µM (active)
Cc1c(O)ccc2c(O)c(NC(=O)c3ccc4c(c3)CCC(C)(C)O4)c(=O)oc12 [CYCLONOVOBIOCIC ACID] | 45.8 µM (inactive) | > 100 µM (inactive) | > 100 µM (inactive) | > 100 µM (inactive) | > 100 µM (inactive) | > 100 µM (inactive) | > 100 µM (inactive) | > 100 µM (inactive) | > 100 µM (inactive) | > 100 µM (inactive) | > 100 µM (inactive) | > 100 µM (inactive) | > 100 µM (inactive) | > 100 µM (inactive) | > 100 µM (inactive) | > 100 µM (inactive) | > 100 µM (inactive) | > 100 µM (inactive) | > 100 µM (inactive) | > 100 µM (inactive)
COc1ccccc1C1C2=C(COC2=O)OC(C)(C)Oc2cc3c(cc21)OCO3 (stereo not given) | 3.06 µM (inactive) | > 10 µM (inactive) | 3.33 µM (inactive) | 7.29 µM (inactive) | 3.75 µM (inactive) | 8.65 µM (inactive) | 3.47 µM (inactive) | 2.86 µM (inactive) | 3.82 µM (inactive) | 3.89 µM (inactive) | 3.89 µM (inactive) | 13.4 µM (inactive) | 5.12 µM (inactive) | 4.03 µM (inactive) | 1.06 µM (active) | 2.67 µM (inactive) | 3.36 µM (inactive) | 3.59 µM (inactive) | 3.44 µM (inactive) | 3.67 µM (inactive)
C[C@H]1[C@H](C)CC[C@]2(C(=O)OC3OC(CO)C(O)C(O)C3O)CC[C@]3(C)C(=CC[C@@H]4[C@@]5(C)C[C@@H](O)[C@@H]6OC(=O)c7cc(O)c(O)c(O)c7-c7c(cc(O)c(O)c7O)C(=O)OC[C@@]6(CO)[C@@H]5CC[C@]43C)[C@H]12 (stereo not given in full) | > 100 µM (inactive) | > 100 µM (inactive) | 47.8 µM (inactive) | > 100 µM (inactive) | 46.7 µM (inactive) | > 92.5 µM (inactive) | 25.4 µM (inactive) | 19.5 µM (inactive) | 39.5 µM (inactive) | > 95.5 µM (inactive) | > 100 µM (inactive) | > 75.3 µM (inactive) | 57.1 µM (inactive) | 98.2 µM (inactive) | > 100 µM (inactive) | > 100 µM (inactive) | > 84.9 µM (inactive) | > 100 µM (inactive) | 38.1 µM (inactive) | 28.6 µM (inactive)
COC(=O)/C=C1/OC(c2ccc(Br)cc2)=C(Br)C1=O | 16.6 µM (inactive) | 5.28 µM (inactive) | 2.33 µM (inactive) | 7.66 µM (inactive) | 3 µM (inactive) | 7.48 µM (inactive) | 4.29 µM (inactive) | 2.43 µM (inactive) | 2.42 µM (inactive) | 7.94 µM (inactive) | 6.7 µM (inactive) | 6.34 µM (inactive) | 3.29 µM (inactive) | 2.26 µM (inactive) | 4.94 µM (inactive) | 14.1 µM (inactive) | 7.48 µM (inactive) | 7.43 µM (inactive) | 0.179 µM (active) | 2.6 µM (inactive)
OC1(c2cccs2)c2cccc(Cl)c2C(O)(c2cccs2)c2c(Cl)cccc21 (stereo not given) | > 100 µM (inactive) | 35.6 µM (inactive) | > 100 µM (inactive) | > 100 µM (inactive) | > 100 µM (inactive) | 93.1 µM (inactive) | > 100 µM (inactive) | 18.5 µM (inactive) | > 100 µM (inactive) | 80.2 µM (inactive) | 54.6 µM (inactive) | > 100 µM (inactive) | 58.9 µM (inactive) | > 100 µM (inactive) | > 100 µM (inactive) | 33.1 µM (inactive) | > 100 µM (inactive) | 47.4 µM (inactive) | 36.6 µM (inactive) | > 100 µM (inactive)
